Test system: DYT1 knockin (Tor1a^delGAG/+) murine embryonic fibroblasts (MEFs)
Assay: microRNA-seq of EVs from DYT1 MEFs treated with drug, compared with non-treated DYT1 MEFs
Assay type: cell-based, mouse
Conditions: for Sal Direction Opposite ISRIB?: EVs of DYT1 (Het) MEFs
Method: In addition to proteomic analysis, total RNA-seq and microRNA-seq was performed on RNA isolated in parallel from the EV samples of Cohort 2. As with the proteomic analysis, one biological replicate was prepared from 3 distinct biological clonal cell lines for each genotype. Here, EVs were isolated from conditioned cell culture media by 18 hour ultracentrifugation at 100,000 g. RNA was extracted using the Qiagen miRNeasy Micro Kit (Cat. No. 217084) according to the manufacturer's protocol. Two RNA fractions were extracted from each sample, one enriched in coding and non-coding RNA species>200 nt (“Total RNA” fraction) and one enriched for small RNAs<200 nt (“miRNA” fraction). RNA samples were then submitted to the Duke Sequencing and Genomic Technologies shared resource for further quality control and sequencing. Samples were assessed for concentration and integrity by Qubit and Fragment Analyzer. The miRNA fractions were 4.16 ng/μL-47.57 ng/μL and total RNA fractions were 3.8 ng/μL-43.6 ng/μL. The small RNA library was prepared using the QIAseq miRNA Library Kit (Cat No./ID: 331505) and sequenced on the Illumina NextSeq 500 High-Output platform with 75 bp single-reads. The total RNA library was prepared using the Illumina TruSeq Stranded Total RNA-seq Kit with Ribozero Gold ribosomal RNA reduction and sequenced on the Illumina NovaSeq 6000 S1 platform with 100 bp paired-end reads. Sequencer lane pooling and read depth are attached in the Excel data summary (See “RNA QC” Tab). Data processing and analysis were performed in collaboration with the Duke Genomic Analysis and Bioinformatics shared resource. RNA-seq data was processed using the TrimGalore toolkit (http://www.bioinformatics.babraham.ac.uk/projects/trim_galore), which employs Cutadapt(Martin M. (2011) EMBnet.journal. 17(1):10-12) to trim low quality bases and Illumina sequencing adapters from the 3' end of the reads. Only reads that were 20 nt or longer after trimming were kept for further analysis. Reads were mapped to the mouse genome and transcriptome ([…], et al. (2012) Nucleic Acids Res. 40(Database issue):[…]-97) using the STAR RNA-seq alignment tool (Dobin A, et al. (2013). Bioinformatics. 29(1):15-21). If the reads mapped to a single genomic location, then they were kept for subsequent analysis. Gene counts were compiled using the HTSeq tool (http://www-huber.embl.de/users/anders/HTSeq/). Only genes that had at least 10 reads in any given library were used in subsequent analysis. Normalization and differential expression was carried out using the DESeq26 Bioconductor (Huber W, et al. (2015) Nat Methods. 12(2):115-121) package with the R statistical programming environment (www.r-project.org). […] 694 miRNAs were initially examined with respect to QC, genotype, RTV effects, and ISRIB effects. This subset was the “Full miRNA” subset. FIG. 9A and FIG. 9B show the RTV effect on EV composition in DYT1 cells compared to WT cells for 279 miRNAs, respectively. […] Beginning with the 694 miRNAs in the “Full miRNA” subset, more than 60 molecules were detected in either WT cells or DYT1 cells (WT or Het UMI>60). […] The candidate miRNAs were ranked by the sum of genotype-dependent absolute Z-scores and RTV-induced absolute Z-scores (Abs Z Score Sum (Geno+RTV)). This subset was the “miRNA-Ritonavir Therapeutic Efficacy” subset and contained 201 miRNAs.

[1] = SAL-treated vs non-treated DYT1 (Het) MEF EVs

Compound: O=C(/C=C/c1ccccc1)NC(NC(=S)Nc1cccc2cccnc12)C(Cl)(Cl)Cl (centres unmarked) [SAL, Salubrinal]
- mmu-miR-147-5p: SALvHet Z Score [1]: −0.16
- mmu-miR-181a-1-3p: SALvHet Z Score [1]: −0.12
- mmu-miR-181a-1-3p: Sal Direction Opposite ISRIB? [1]: yes
- mmu-miR-331-5p: SALvHet Z Score [1]: 0.66
- mmu-miR-668-3p: SALvHet Z Score [1]: 0.34
- mmu-miR-1930-5p: SALvHet Z Score [1]: −1.60
- mmu-miR-1943-5p: SALvHet Z Score [1]: −0.08
- mmu-miR-1955-5p: SALvHet Z Score [1]: 1.06
- mmu-miR-3072-5p: SALvHet Z Score [1]: 0.00
- mmu-miR-3076-3p: SALvHet Z Score [1]: 0.00
- mmu-miR-3088-3p: SALvHet Z Score [1]: −1.34
- mmu-miR-6936-3p: SALvHet Z Score [1]: −0.71
- mmu-miR-6936-3p: Sal Direction Opposite ISRIB? [1]: yes
- mmu-miR-7224-3p: SALvHet Z Score [1]: 0.30
- mmu-miR-7224-3p: Sal Direction Opposite ISRIB? [1]: yes
- mmu-miR-467d-3p: SALvHet Z Score [1]: −0.01
- SALvHet Z Score (mmu-let-7a-1-3p): 0.28
- SALvHet Z Score (mmu-let-7c-2-3p): 0.28
- SALvHet Z Score (mmu-let-7g-5p): −0.16
- SALvHet Z Score (mmu-let-7i-3p): 0.35
- Sal Direction Opposite ISRIB? (mmu-miR-30e-5p): yes
- SALvHet Z Score (mmu-miR-30e-3p): −0.06
- SALvHet Z Score (mmu-miR-15a-5p): 0.17
- SALvHet Z Score (mmu-miR-16-5p): −0.01
- SALvHet Z Score (mmu-miR-17-3p): 0.10
- Sal Direction Opposite ISRIB? (mmu-miR-19b-3p): yes
- SALvHet Z Score (mmu-miR-22-3p): 0.17
- Sal Direction Opposite ISRIB? (mmu-miR-22-3p): yes
- SALvHet Z Score (mmu-miR-23a-3p): 0.05
- SALvHet Z Score (mmu-miR-25-3p): −0.04
- Sal Direction Opposite ISRIB? (mmu-miR-26b-Sp): yes
- SALvHet Z Score (mmu-miR-29b-3p): 0.38
- SALvHet Z Score (mmu-miR-29c-3p): 0.40
- SALvHet Z Score (mmu-miR-30a-5p): −0.09
- SALvHet Z Score (mmu-miR-30b-5p): 0.15
- SALvHet Z Score (mmu-miR-30c-5p (1st line so named)): 0.42
- SALvHet Z Score (mmu-miR-30c-5p (2nd line so named)): 0.07
- Sal Direction Opposite ISRIB? (mmu-miR-30c-5p): yes
- SALvHet Z Score (mmu-miR-31-3p): −0.03
- SALvHet Z Score (mmu-miR-31-5p): −0.14
- SALvHet Z Score (mmu-miR-32-5p): 0.26
- SALvHet Z Score (mmu-miR-33-5p): 0.26
- SALvHet Z Score (mmu-miR-34a-5p): −0.03
- SALvHet Z Score (mmu-miR-34b-5p): 0.38
- SALvHet Z Score (mmu-miR-34c-3p): −0.37
- SALvHet Z Score (mmu-miR-34c-5p): 0.07
- Sal Direction Opposite ISRIB? (mmu-miR-34c-5p): yes
- SALvHet Z Score (mmu-miR-96-5p): 0.13
- Sal Direction Opposite ISRIB? (mmu-miR-96-5p): yes
- SALvHet Z Score (mmu-miR-98-5p): −0.22
- SALvHet Z Score (mmu-miR-99a-5p): −0.17
- SALvHet Z Score (mmu-miR-101b-3p): 0.64
- SALvHet Z Score (mmu-miR-106b-3p): −0.23
- SALvHet Z Score (mmu-miR-106b-5p): 0.04
- SALvHet Z Score (mmu-miR-124-3p): −0.72
- SALvHet Z Score (mmu-miR-125b-1-3p): −0.41
- SALvHet Z Score (mmu-miR-130b-3p): 0.32
- Sal Direction Opposite ISRIB? (mmu-miR-130b-3p): yes
- Sal Direction Opposite ISRIB? (mmu-miR-135a-5p): yes
- SALvHet Z Score (mmu-miR-136-3p): 0.08
- SALvHet Z Score (mmu-miR-140-3p): 0.50
- Sal Direction Opposite ISRIB? (mmu-miR-140-3p): yes
- SALvHet Z Score (mmu-miR-146a-5p): 0.02
- SALvHet Z Score (mmu-miR-148a-3p): −0.02
- SALvHet Z Score (mmu-miR-148b-3p): −0.07
- SALvHet Z Score (mmu-miR-149-5p): 0.03
- SALvHet Z Score (mmu-miR-151-5p): 0.12
- SALvHet Z Score (mmu-miR-152-3p): −0.02
- SALvHet Z Score (mmu-miR-181a-5p): −0.23
- SALvHet Z Score (mmu-miR-181b-5p): −0.32
- SALvHet Z Score (mmu-miR-181c-5p): 0.26
- SALvHet Z Score (mmu-miR-182-5p): 0.01
- Sal Direction Opposite ISRIB? (mmu-miR-182-5p): yes
- SALvHet Z Score (mmu-miR-183-5p): −0.06
- SALvHet Z Score (mmu-miR-185-5p): 0.15
- SALvHet Z Score (mmu-miR-186-5p): 0.00
- SALvHet Z Score (mmu-miR-187-3p): 0.30
- Sal Direction Opposite ISRIB? (mmu-miR-187-3p): yes
- SALvHet Z Score (mmu-miR-188-5p): −0.05
- SALvHet Z Score (mmu-miR-190b-5p): 0.15
- SALvHet Z Score (mmu-miR-191-5p): 0.04
- SALvHet Z Score (mmu-miR-192-5p): 0.09
- Sal Direction Opposite ISRIB? (mmu-miR-192-5p): yes
- SALvHet Z Score (mmu-miR-194-5p): 0.18
- SALvHet Z Score (mmu-miR-199a-3p): −0.10
- SALvHet Z Score (mmu-miR-199b-3p): −0.10
- SALvHet Z Score (mmu-miR-206-3p): −0.27
- SALvHet Z Score (mmu-miR-214-5p): 0.04
- SALvHet Z Score (mmu-miR-219a-5p): 0.34
- SALvHet Z Score (mmu-miR-223-3p): −0.01
- SALvHet Z Score (mmu-miR-224-5p): −0.27
- SALvHet Z Score (mmu-miR-296-3p): 0.05
- Sal Direction Opposite ISRIB? (mmu-miR-296-3p): yes
- SALvHet Z Score (mmu-miR-298-5p): 0.16
- Sal Direction Opposite ISRIB? (mmu-miR-298-5p): yes
- SALvHet Z Score (mmu-miR-299a-3p): 0.39
- SALvHet Z Score (mmu-miR-301a-3p): 0.35
- SALvHet Z Score (mmu-miR-301b-3p): 0.01
- SALvHet Z Score (mmu-miR-320-3p): −0.21
- SALvHet Z Score (mmu-miR-322-5p): −0.07
- SALvHet Z Score (mmu-miR-324-3p): 0.16
- SALvHet Z Score (mmu-miR-335-Sp): −0.35
- SALvHet Z Score (mmu-miR-340-5p): 0.31
- SALvHet Z Score (mmu-miR-344-3p): 0.44
- Sal Direction Opposite ISRIB? (mmu-miR-344-3p): yes
- SALvHet Z Score (mmu-miR-350-3p): 0.08
- SALvHet Z Score (mmu-miR-361-5p): −0.15
- SALvHet Z Score (mmu-miR-362-3p): 0.47
- Sal Direction Opposite ISRIB? (mmu-miR-362-3p): yes
- SALvHet Z Score (mmu-miR-362-5p): −0.10
- SALvHet Z Score (mmu-miR-378a-3p): −0.12
- SALvHet Z Score (mmu-miR-450a-5p): 0.09
- SALvHet Z Score (mmu-miR-450b-3p): −0.29
- SALvHet Z Score (mmu-miR-451a): 0.38
- SALvHet Z Score (mmu-miR-483-5p): −1.22
- SALvHet Z Score (mmu-miR-500-3p): 0.10
- SALvHet Z Score (mmu-miR-503-3p): −0.70
- SALvHet Z Score (mmu-miR-532-5p): −0.06
- SALvHet Z Score (mmu-miR-542-3p): 0.33
- SALvHet Z Score (mmu-miR-542-5p): 0.39
- Sal Direction Opposite ISRIB? (mmu-miR-542-5p): yes
- SALvHet Z Score (mmu-miR-582-3p): −0.45
- SALvHet Z Score (mmu-miR-652-3p): 0.34
- SALvHet Z Score (mmu-miR-671-5p): 0.26
- Sal Direction Opposite ISRIB? (mmu-miR-671-5p): yes
- SALvHet Z Score (mmu-miR-700-3p): 0.16
- SALvHet Z Score (mmu-miR-708-5p): 0.58
- SALvHet Z Score (mmu-miR-872-5p): 0.19
- SALvHet Z Score (mmu-miR-1291): −0.06
- SALvHet Z Score (mmu-miR-1843a-5p): 0.07
- SALvHet Z Score (mmu-miR-3102-3p): 0.35
- SALvHet Z Score (mmu-miR-3535): −0.66
- SALvHet Z Score (mmu-miR-5121): 0.22
- Sal Direction Opposite ISRIB? (mmu-miR-5121): yes
- Sal Direction Opposite ISRIB? (mmu-miR-30h-5p): yes
- SALvHet Z Score (mmu-miR-30d-5p): −0.11
- SALvHet Z Score (mmu-miR-344d-3p): −1.00
